# According to ChEMBL document CHEMBL1133258, “Synthesis and evaluation of quinoxalinones as HIV-1 reverse transcriptase inhibitors” (Bioorg Med Chem Lett, 2000):
# Assays:
# [1] = molecular target: Human immunodeficiency virus type 1 reverse transcriptase (Human immunodeficiency virus 1, UniProt Q72547); assay: Inhibitory concentration for 50% inhibition of HIV-1 reverse transcriptase
# [2] = molecular target: Human immunodeficiency virus type 1 reverse transcriptase (Human immunodeficiency virus 1) (UniProt Q72547)
# Description: Inhibitory concentration for 90% inhibition of HIV-1 reverse transcriptase, whole cell based antiviral assay
Structure (SMILES),IC50 [1] [nM],IC90 [2] [nM]
C=C(C)OC(=O)N1c2cc(Cl)ccc2NC(=O)C1(C#CC1CC1)C(F)(F)F (stereo unspecified),315,15
C#CCN1c2ccccc2NC(=O)C1(C#CC1CC1)C(F)(F)F (stereo unspecified),1810,53
CCCS(=O)(=O)N1c2ccccc2NC(=O)C1(C#CC1CC1)C(F)(F)F (stereo unspecified),> 5000,> 1000
CC(C)OC(=O)N1c2ccccc2NC(=O)C1(C#CC1CC1)C(F)(F)F (stereo unspecified),108,15
CCS(=O)(=O)N1c2ccccc2NC(=O)C1(C#CC1CC1)C(F)(F)F (stereo unspecified),> 5000,> 1000
COc1ccc2c(c1)N(CC1CC1)C(C#CC1CC1)(C(F)(F)F)C(=O)N2 (stereo unspecified),109,19
CCCCOC(=O)N1c2ccccc2NC(=O)C1(C#CC1CC1)C(F)(F)F (stereo unspecified),672,105
CCOC(=O)N1c2ccccc2NC(=O)C1(C#CC1CC1)C(F)(F)F (stereo in doubt) [listing 1 of 2 here],45,–
O=C(c1ccccc1)N1c2ccccc2NC(=O)C1(C#CC1CC1)C(F)(F)F (stereo unspecified),> 5000,> 1000
C=CCOC(=O)N1c2ccccc2NC(=O)C1(C#CC1CC1)C(F)(F)F (stereo unspecified),147,30
CC(C)OC(=O)N1c2cc(Cl)ccc2NC(=O)C1(C#CC1CC1)C(F)(F)F (stereo unspecified),160,19
O=C1Nc2ccc(Cl)cc2N(CC2CC2)C1(C#CC1CC1)C(F)(F)F (stereo unspecified),329,27
CC(C)OC(=O)N1c2cc(F)ccc2NC(=O)C1(C#CC1CC1)C(F)(F)F (stereo unspecified),130,9
COC(=O)N1c2ccccc2NC(=O)C1(C#CC1CC1)C(F)(F)F (stereo unspecified),504,44
CCOC(=O)N1c2ccccc2NC(=O)C1(C#CC1CC1)C(F)(F)F (stereo in doubt; 6m) [listing 1 of 2 here],–,9
O=C1Nc2ccccc2N(CCC2CC2)C1(C#CC1CC1)C(F)(F)F (stereo unspecified),340,32
O=C1Nc2ccc(F)cc2N(CC2CC2)C1(C#CC1CC1)C(F)(F)F (stereo unspecified),263,23
CC[C@H]1C(=O)Nc2ccc(F)cc2N1C(=O)OC(C)C [OPAVIRALINE],179,11
CC(C)CN1c2cc(Cl)ccc2NC(=O)C1(C#CC1CC1)C(F)(F)F (stereo unspecified),404,52

Structure (SMILES),IC50 [1] [nM],IC90 [2] [nM]
O=C1Nc2ccccc2N(CC2CC2)C1(C#CC1CC1)C(F)(F)F (stereo in doubt; 6z) [listing 1 of 2 here],127,–
CCOC(=O)N1c2cc(F)ccc2NC(=O)C1(C#CC1CC1)C(F)(F)F (stereo unspecified),121,8
CC(C)COC(=O)N1c2ccccc2NC(=O)C1(C#CC1CC1)C(F)(F)F (stereo unspecified),1140,158
C=C(C)OC(=O)N1c2cc(F)ccc2NC(=O)C1(C#CC1CC1)C(F)(F)F (stereo unspecified),183,8
CC(C)S(=O)(=O)N1c2ccccc2NC(=O)C1(C#CC1CC1)C(F)(F)F (stereo unspecified),> 5000,> 1000
O=C1Nc2ccccc2N(CC2CC2)C1(C#CC1CC1)C(F)(F)F (stereo in doubt; 6a) [listing 1 of 2 here],–,17
C=CCN1c2cc(Cl)ccc2NC(=O)C1(C#CC1CC1)C(F)(F)F (stereo unspecified),650,85
C=C(C)OC(=O)N1c2ccccc2NC(=O)C1(C#CC1CC1)C(F)(F)F (stereo unspecified),169,11
C=CCN1c2cc(F)ccc2NC(=O)C1(C#CC1CC1)C(F)(F)F (stereo unspecified),124,21
O=C1Nc2ccccc2N(CC2CC2)C1(C#CC1CC1)C(F)(F)F (stereo in doubt; 6z) [listing 2 of 2 here],–,11
O=C1Nc2ccccc2N(Cc2ccccc2)C1(C#CC1CC1)C(F)(F)F (stereo unspecified),1820,21
CCOC(=O)N1c2ccccc2NC(=O)C1(C#CC1CC1)C(F)(F)F (stereo in doubt; 6m) [listing 2 of 2 here],118,–
C=CCN1c2ccccc2NC(=O)C1(C#CC1CC1)C(F)(F)F (stereo unspecified),601,22
CC(C)C(I)N1c2ccccc2NC(=O)C1(C#CC1CC1)C(F)(F)F (stereo unspecified),160,19
CCOC(=O)N1c2cc(Cl)ccc2NC(=O)C1(C#CC1CC1)C(F)(F)F (stereo unspecified),127,11
C=CCN1c2cc(OC)ccc2NC(=O)C1(C#CC1CC1)C(F)(F)F (stereo unspecified),123,29
CCOC(=O)N1c2ccccc2NC(=O)C1(C#CC1CC1)C(F)(F)F (stereo in doubt) [listing 2 of 2 here],–,4.8
O=C1Nc2ccccc2N(CC2CC2)C1(C#CC1CC1)C(F)(F)F (stereo in doubt; 6a) [listing 2 of 2 here],253,–
